Test results: ChEMBL document CHEMBL5038679, “Fluoroalkylation of Dextromethorphan Improves CNS Exposure and Metabolic Stability” (ACS Med Chem Lett, 2022)
≈ marks a conversion by molar mass, not a printed value.

Columns and labels:
[1] = Aqueous solubility of compound in universal buffer at pH 3 at 100 uM incubated for 1.5 hrs under shaking condition by LC-MS/MS analysis; type: physicochemical
in vitro [2] = conditions: dog, MDCK-MDR1
Description: Apparent permeability in dog MDCK-MDR1 cells from apical to basal side measured after 30 to 120 mins by LC-MS analysis

[3] = biological target: Glutamate [NMDA] receptor; assay: Displacement of […] from NMDA receptor (unknown origin) expressed in HEK cell membrane incubated for 2 hrs by liquid scintillation counter analysis
[4] = Aqueous solubility of compound in universal buffer at pH 7.4 at 100 uM incubated for 1.5 hrs under shaking condition by LC-MS/MS analysis; type: physicochemical
in vitro [5] = conditions: dog, MDCK-MDR1; remark: listed apart in the source
Description: Apparent permeability in dog MDCK-MDR1 cells from basal to apical side measured after 30 to 120 mins by LC-MS analysis

[6] = Efflux ratio of apparent permeability across basolateral to apical side over apical to basolateral side in dog MDCK-MDR1 cells measured after 30 to 120 mins by LC-MS analysis; type: ADME, cell-based, Canis lupus familiaris; conditions: time 30-120 min
[7] = biological target: T1, Sodium-dependent serotonin transporter (Homo sapiens, UniProt P31645); assay: biochemical; type: cell-based, HEK
T1 sequence (P31645 whole entry): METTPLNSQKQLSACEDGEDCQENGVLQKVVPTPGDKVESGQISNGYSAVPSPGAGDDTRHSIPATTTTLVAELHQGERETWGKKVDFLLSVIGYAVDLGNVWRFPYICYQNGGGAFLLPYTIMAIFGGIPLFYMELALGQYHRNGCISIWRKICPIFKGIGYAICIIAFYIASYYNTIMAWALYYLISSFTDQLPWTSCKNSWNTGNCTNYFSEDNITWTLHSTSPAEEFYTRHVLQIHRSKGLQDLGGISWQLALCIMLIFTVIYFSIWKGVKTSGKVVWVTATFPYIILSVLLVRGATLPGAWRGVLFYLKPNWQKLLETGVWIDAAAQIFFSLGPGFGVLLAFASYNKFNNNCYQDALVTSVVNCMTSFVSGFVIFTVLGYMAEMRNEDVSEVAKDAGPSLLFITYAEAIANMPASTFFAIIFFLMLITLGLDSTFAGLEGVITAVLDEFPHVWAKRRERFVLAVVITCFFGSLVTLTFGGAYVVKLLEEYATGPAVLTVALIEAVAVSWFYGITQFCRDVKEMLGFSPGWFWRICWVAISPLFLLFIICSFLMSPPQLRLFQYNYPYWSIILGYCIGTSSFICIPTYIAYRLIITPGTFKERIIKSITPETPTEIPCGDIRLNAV
Description: Displacement of [3H]-Citalopram from SERT receptor (unknown origin) expressed in HEK cell membrane incubated for 2 hrs by liquid scintillation counter analysis

[8] = Stability in human liver microsomes assessed as half life at 10 uM measured upto 120 mins by LC-MS/MS analysis; type: ADME, Microsome
[9] = biological target: Sigma intracellular receptor 2 (Homo sapiens, UniProt Q5BJF2); assay: Displacement of […] from sigma-2 receptor (unknown origin) expressed in HEK cell membrane incubated for 2 hrs by liquid scintillation counter analysis
Sigma intracellular receptor 2, sequence (Q5BJF2 whole entry): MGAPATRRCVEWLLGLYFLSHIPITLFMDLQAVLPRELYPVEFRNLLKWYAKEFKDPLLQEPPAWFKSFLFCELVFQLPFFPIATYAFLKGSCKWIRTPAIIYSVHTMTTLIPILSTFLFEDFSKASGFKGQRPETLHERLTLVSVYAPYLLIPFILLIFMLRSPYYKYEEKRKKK

[10] = biological target: T2, Sodium-dependent noradrenaline transporter (Homo sapiens, UniProt P23975); assay: Displacement of […] from NET (unknown origin) expressed in HEK cell membrane incubated for 2 hrs by liquid scintillation counter analysis
T2 sequence (P23975 whole entry): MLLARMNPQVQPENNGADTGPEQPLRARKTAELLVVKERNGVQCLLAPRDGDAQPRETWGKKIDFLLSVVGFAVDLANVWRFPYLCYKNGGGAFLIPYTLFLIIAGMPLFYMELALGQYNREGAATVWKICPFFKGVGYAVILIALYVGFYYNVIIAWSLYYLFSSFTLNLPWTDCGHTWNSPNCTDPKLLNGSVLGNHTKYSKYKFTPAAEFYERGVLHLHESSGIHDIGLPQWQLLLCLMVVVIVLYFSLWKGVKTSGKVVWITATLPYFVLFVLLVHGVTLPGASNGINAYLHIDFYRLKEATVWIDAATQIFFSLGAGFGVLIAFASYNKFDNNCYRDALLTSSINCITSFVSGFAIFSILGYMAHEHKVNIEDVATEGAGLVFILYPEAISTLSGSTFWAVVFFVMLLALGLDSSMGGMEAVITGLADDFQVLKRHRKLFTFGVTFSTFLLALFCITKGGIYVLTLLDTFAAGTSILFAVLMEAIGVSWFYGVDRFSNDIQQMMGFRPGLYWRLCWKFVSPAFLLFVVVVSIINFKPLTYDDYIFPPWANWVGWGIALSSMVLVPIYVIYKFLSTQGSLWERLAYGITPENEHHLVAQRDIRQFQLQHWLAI

[11] = biological target: Sigma non-opioid intracellular receptor 1 (Homo sapiens, UniProt Q99720); assay: Displacement of […] from sigma-1 receptor (unknown origin) expressed in HEK cell membrane incubated for 2 hrs by liquid scintillation counter analysis
Sigma non-opioid intracellular receptor 1, sequence (Q99720 whole entry): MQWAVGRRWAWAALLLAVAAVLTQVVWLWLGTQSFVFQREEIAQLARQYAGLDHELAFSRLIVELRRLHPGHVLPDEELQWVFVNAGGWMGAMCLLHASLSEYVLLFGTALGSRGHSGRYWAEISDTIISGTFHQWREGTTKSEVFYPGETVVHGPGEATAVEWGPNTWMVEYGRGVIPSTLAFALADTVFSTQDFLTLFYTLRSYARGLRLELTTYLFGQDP

in vitro [12] = conditions: human, liver microsomes
[13] = biological target: T2, Sodium-dependent noradrenaline transporter; assay: Inhibition of human NET expressed in human HEK293 cells assessed as inhibition of substrate transport measured after 1 hr by flourescence based plate reader assay; type: cell-based
[14] = AUC in Sprague-Dawley rat brain at 2.5 mg/kg, po measured after 24 hrs by LC-MS/MS analysis; type: ADME, organism-based; set-up: route oral, time 24 hrs, dose 2.5 mg/kg
[15] = Protein binding in Sprague-Dawley rat brain plasma assessed as unbound fraction at 5 uM measured after 4 hrs by LC-MS analysis; type: ADME, tissue-based
hERG (KCNH2) = hERG (KCNH2) (Homo sapiens, UniProt Q12809); assay: Inhibition of human ERG at 10 uM measured after 15 mins by plate reader method relative to control; type: toxicity
hERG (KCNH2), sequence (Q12809 whole entry): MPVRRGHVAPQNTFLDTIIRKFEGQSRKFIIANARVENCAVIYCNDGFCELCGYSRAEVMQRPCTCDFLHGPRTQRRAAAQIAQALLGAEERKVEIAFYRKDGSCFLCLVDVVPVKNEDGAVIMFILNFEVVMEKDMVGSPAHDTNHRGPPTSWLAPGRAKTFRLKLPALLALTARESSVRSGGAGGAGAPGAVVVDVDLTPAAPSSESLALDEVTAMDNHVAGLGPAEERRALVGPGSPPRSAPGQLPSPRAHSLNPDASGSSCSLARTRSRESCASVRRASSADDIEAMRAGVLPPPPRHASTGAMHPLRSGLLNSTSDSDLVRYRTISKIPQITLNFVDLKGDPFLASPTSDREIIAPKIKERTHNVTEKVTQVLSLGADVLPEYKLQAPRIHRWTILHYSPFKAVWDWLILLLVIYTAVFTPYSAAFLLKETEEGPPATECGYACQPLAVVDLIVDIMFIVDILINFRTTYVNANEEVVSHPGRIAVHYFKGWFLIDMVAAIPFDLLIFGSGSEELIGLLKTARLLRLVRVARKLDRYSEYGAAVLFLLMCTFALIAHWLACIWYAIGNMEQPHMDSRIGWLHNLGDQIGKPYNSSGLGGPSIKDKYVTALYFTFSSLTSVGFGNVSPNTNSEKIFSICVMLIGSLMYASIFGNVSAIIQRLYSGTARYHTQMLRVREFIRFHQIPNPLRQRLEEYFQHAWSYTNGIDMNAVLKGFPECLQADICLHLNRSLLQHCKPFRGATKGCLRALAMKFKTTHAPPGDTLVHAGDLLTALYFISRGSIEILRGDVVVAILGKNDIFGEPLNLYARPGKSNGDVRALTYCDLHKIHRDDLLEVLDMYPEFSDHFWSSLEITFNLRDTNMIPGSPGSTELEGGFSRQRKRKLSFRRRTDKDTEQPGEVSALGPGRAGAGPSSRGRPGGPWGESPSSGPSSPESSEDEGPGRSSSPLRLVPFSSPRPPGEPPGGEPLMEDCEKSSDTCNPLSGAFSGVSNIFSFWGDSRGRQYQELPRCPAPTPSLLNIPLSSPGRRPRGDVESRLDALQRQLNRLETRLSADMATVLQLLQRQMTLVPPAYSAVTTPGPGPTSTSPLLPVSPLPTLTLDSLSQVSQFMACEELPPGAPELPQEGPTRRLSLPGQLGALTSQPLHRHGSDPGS

[16] = AUC in Sprague-Dawley rat plasma at 2.5 mg/kg, po measured after 24 hrs by LC-MS/MS analysis; type: ADME, organism-based; set-up: route oral, time 24 hrs, dose 2.5 mg/kg
[17] = Half life in Sprague-Dawley rat brain at 2.5 mg/kg, po measured after 24 hrs by LC-MS/MS analysis; type: ADME, organism-based
[18] = Clearance in Sprague-Dawley rat plasma at 2.5 mg/kg, po measured after 24 hrs by LC-MS/MS analysis; type: ADME, organism-based
[19] = Unbound brain-to-plasma concentration ratio in Sprague-Dawley rat; type: ADME, cell-free; conditions: read-out: K(p,uu,brain)
[20] = Protein binding in Sprague-Dawley rat plasma assessed as unbound fraction at 20 uM by NMR analysis; type: ADME, cell-free
[21] = Volume of distribution in Sprague-Dawley rat at 2.5 mg/kg, po measured after 24 hrs by LC-MS/MS analysis; type: ADME, organism-based; conditions: in vivo
[22] = Cmax in Sprague-Dawley rat plasma at 2.5 mg/kg, po measured after 24 hrs by LC-MS/MS analysis; type: ADME, organism-based; set-up: route oral, dose 2.5 mg/kg, time 24 hrs
[23] = Half life in Sprague-Dawley rat plasma at 2.5 mg/kg, po measured after 24 hrs by LC-MS/MS analysis; type: ADME, organism-based
[24] = Cmax in Sprague-Dawley rat brain at 2.5 mg/kg, po measured after 24 hrs by LC-MS/MS analysis; type: ADME, organism-based; set-up: route oral, time 24 hrs, dose 2.5 mg/kg
[25] = biological target: T1, Sodium-dependent serotonin transporter; type: cell-based, HEK293

| Compound | solubility at 1.5 h, 100 µM [1] | Papp A→B (in vitro [2]) | Ki [3] | solubility at 1.5 h, 100 µM [4] | Papp B→A (in vitro [5]) | efflux ratio [6] | Ki [7] | half-life at 10 µM [8] | Ki [9] | Ki [10] | Ki [11] | CLint scaled at 2 h, 10 µM (in vitro [12]) | AUC at 24 h [14] | AUC at 24 h [16] | half-life [17] | CL/F [18] | Kp uu at 20 µM [19] | Cmax [22] | half-life [23] | Cmax [24] | further results |
| --- | --- | --- | --- | --- | --- | --- | --- | --- | --- | --- | --- | --- | --- | --- | --- | --- | --- | --- | --- | --- | --- |
| CN1CC[C@@]23CCCC[C@@H]2[C@@H]1Cc1ccc(C(F)(F)C(F)(F)F)cc13 | 77 µM (≈ 27.7 µg/mL) | 0.831 ×10⁻⁶ cm/s | > 10000 nM | > 100 µM | 0.833 ×10⁻⁶ cm/s | 1 | > 10000 nM | 1.45 h | 1400 nM | > 10000 nM | > 10000 nM | 14.4 mL/min/kg | – | – | – | – | – | – | – | – | – |
| COc1ccc2c(c1)[C@@]13CCCC[C@@H]1[C@@H](C2)N(C)CC3 | 88 µM (≈ 23.9 µg/mL) | 1.48 ×10⁻⁶ cm/s | 624 nM | 94 µM (≈ 25.5 µg/mL) | 1.21 ×10⁻⁶ cm/s | – | – | 3.42 h | 862 nM | > 10000 nM | 73 nM | 6.09 mL/min/kg | 389 ng·h/mL | 21.3 ng·h/mL | 2.07 h | 2990 mL/min/kg | 27.9 | 9.7 ng/mL | 2 h | 214 ng/mL | IC50 [13]: > 10000 nM; Cp(f) [15]: 21.6%; inhibition at 0.25 h, 10 µM (hERG (KCNH2)): 0.1%; Cp(f) [20]: 19.3%; Vd [21]: 589 L/kg |
| [2H]C([2H])([2H])Oc1ccc2c(c1)[C@@]13CCCC[C@@H]1[C@@H](C2)N(C([2H])([2H])[2H])CC3 | 95.5 µM (≈ 26.5 µg/mL) | – | – | 112 µM (≈ 31.1 µg/mL) | – | – | – | 4.4 h | – | – | – | 4.72 mL/min/kg | 97.3 ng·h/mL | 15 ng·h/mL | 4.9 h | 1840 mL/min/kg | 10.8 | 5.5 ng/mL | 7.07 h | 53.1 ng/mL | – |
| CN1CC[C@]23CCCC[C@@H]2[C@H]1Cc1ccc(O)cc13 | – | – | 486 nM | – | – | – | 401 nM | – | > 10000 nM | > 340 nM | 118 nM | – | – | – | – | – | – | – | – | – | – |
| [2H]C([2H])([2H])N1CC[C@@]23CCCC[C@@H]2[C@@H]1Cc1ccc(C(F)(F)C(F)(F)F)cc13 | 70 µM (≈ 25.4 µg/mL) | – | – | 82 µM (≈ 29.7 µg/mL) | – | – | – | 2.07 h | – | – | – | 10 mL/min/kg | – | – | – | – | – | – | – | – | – |
| CN1CC[C@@]23CCCC[C@@H]2[C@@H]1Cc1ccc(OC(F)(F)F)cc13 | 60 µM (≈ 19.5 µg/mL) | 0.989 ×10⁻⁶ cm/s | > 10000 nM | > 100 µM | 1.12 ×10⁻⁶ cm/s | 1.13 | 48 nM | 3.67 h | 833 nM | > 10000 nM | 757 nM | 5.66 mL/min/kg | 9460 ng·h/mL | 131 ng·h/mL | 3.18 h | 318 mL/min/kg | 3.3 | 12 ng/mL | 2.8 h | 756 ng/mL | IC50 [13]: > 10000 nM; inhibition at 0.25 h, 10 µM (hERG (KCNH2)): 6.1%; Vd [21]: 77 L/kg; IC50 [25]: 31 nM |
| [2H]C([2H])([2H])N1CC[C@@]23CCCC[C@@H]2[C@@H]1Cc1ccc(C(C)(F)F)cc13 | 67 µM (≈ 20.7 µg/mL) | – | – | 95 µM (≈ 29.3 µg/mL) | – | – | – | 5.38 h | – | – | – | 5.39 mL/min/kg | – | – | – | – | – | – | – | – | – |
| CN1CC[C@@]23CCCC[C@@H]2[C@@H]1Cc1ccc(C(C)(F)F)cc13 | 90 µM (≈ 27.5 µg/mL) | 0.763 ×10⁻⁶ cm/s | > 10000 nM | > 100 µM | 0.833 ×10⁻⁶ cm/s | 1.09 | 301 nM | 2.47 h | 826 nM | > 10000 nM | 675 nM | 8.42 mL/min/kg | – | – | – | – | – | – | – | – | – |
| [2H]C([2H])([2H])N1CC[C@@]23CCCC[C@@H]2[C@@H]1Cc1ccc(C(F)F)cc13 | 70 µM (≈ 20.6 µg/mL) | – | – | 94 µM (≈ 27.7 µg/mL) | – | – | – | 2.03 h | – | – | – | 10.2 mL/min/kg | 4060 ng·h/mL | 353 ng·h/mL | 1.62 h | 135 mL/min/kg | 4.1 | 66 ng/mL | 2.65 h | 854 ng/mL | Cp(f) [15]: 9%; Cp(f) [20]: 28.8%; Vd [21]: 31 L/kg |
| CN1CC[C@@]23CCCC[C@@H]2[C@@H]1Cc1ccc(C(F)F)cc13 | > 100 µM | 1.35 ×10⁻⁶ cm/s | > 10000 nM | > 100 µM | 1.1 ×10⁻⁶ cm/s | 0.81 | 51 nM | 4.05 h | 353 nM | 35 nM | 145 nM | 5.13 mL/min/kg | 4930 ng·h/mL | 144 ng·h/mL | 2.57 h | 288 mL/min/kg | 7.8 | 27 ng/mL | 3.33 h | 674 ng/mL | IC50 [13]: 944 nM; inhibition at 0.25 h, 10 µM (hERG (KCNH2)): 12%; Vd [21]: 85 L/kg; IC50 [25]: 24 nM |
| CN1CC[C@@]23CCCC[C@@H]2[C@@H]1Cc1ccc(OC(F)F)cc13 | 76 µM (≈ 23.4 µg/mL) | 1.28 ×10⁻⁶ cm/s | > 10000 nM | > 100 µM | 0.979 ×10⁻⁶ cm/s | 0.77 | 186 nM | 4.22 h | 1280 nM | > 10000 nM | 568 nM | 4.94 mL/min/kg | – | – | – | – | – | – | – | – | IC50 [13]: > 10000 nM; inhibition at 0.25 h, 10 µM (hERG (KCNH2)): 34.9%; IC50 [25]: 55 nM |
| [2H]C([2H])([2H])N1CC[C@@]23CCCC[C@@H]2[C@@H]1Cc1ccc(OC(F)(F)F)cc13 | 86 µM (≈ 28.2 µg/mL) | – | – | 100 µM (≈ 32.8 µg/mL) | – | – | – | 2.67 h | – | – | – | 7.81 mL/min/kg | 5810 ng·h/mL | 205 ng·h/mL | 3.03 h | 202 mL/min/kg | 1.2 | 32 ng/mL | 2.45 h | 725 ng/mL | Cp(f) [15]: 2.1%; Cp(f) [20]: 40.2%; Vd [21]: 43 L/kg |
| [2H]C([2H])([2H])N1CC[C@@]23CCCC[C@@H]2[C@@H]1Cc1ccc(OC(F)F)cc13 | 83 µM (≈ 25.8 µg/mL) | – | – | 101 µM (≈ 31.4 µg/mL) | – | – | – | 1.58 h | – | – | – | 13.2 mL/min/kg | – | – | – | – | – | – | – | – | – |
| CN1CC[C@@]23CCCC[C@@H]2[C@@H]1Cc1ccc(C(F)(F)F)cc13 | 77 µM (≈ 23.8 µg/mL) | 1.22 ×10⁻⁶ cm/s | > 10000 nM | > 100 µM | 0.915 ×10⁻⁶ cm/s | 0.75 | 125 nM | 3.2 h | 885 nM | > 10000 nM | 813 nM | 6.48 mL/min/kg | – | – | – | – | – | – | – | – | IC50 [13]: 1040 nM; inhibition at 0.25 h, 10 µM (hERG (KCNH2)): 5.1%; IC50 [25]: 60 nM |
| [2H]C([2H])([2H])N1CC[C@@]23CCCC[C@@H]2[C@@H]1Cc1ccc(C(F)(F)F)cc13 | 70 µM (≈ 21.9 µg/mL) | – | – | 95 µM (≈ 29.7 µg/mL) | – | – | – | 1.34 h | – | – | – | 15.4 mL/min/kg | – | – | – | – | – | – | – | – | – |
